# According to publication PMC8170916, “Sublingual AKBA Exerts Antidepressant Effects in the Aβ-Treated Mouse Model” (Biomolecules, 2021):
# Test system: glutamate (GLU)
# Assay: Glutamate quantification in PFC and HIPP by HPLC with fluorescence detection
# Format: in vivo
# Conditions: PFC, mice 7 days after icv Aβ 4 µM; sublingual AKBA 5 mg/kg 30 min earlier
# Procedure: All behavioral experiments were conducted at 5 or 30 min after sublingual administrations of AKBA or vehicle in either SHAM or Aβ-treated mice. Based upon behavioral outcomes observed, neurochemical and biochemical quantifications were performed 30 min after AKBA or vehicle administration in either SHAM or Aβ-treated mice.
# Anesthetized animals were sacrificed by cervical dislocation. Brains were immediately removed and kept on ice for dissection of PFC and HIPP, according to the atlas of Paxinos and Franklin. Tissues were frozen and stored at −80 °C until analyses were carried out. Samples (PFC and HIPP) were homogenized (1:10 w/v) at 4 °C using a PBS buffer containing a 1:100 protease and phosphatase inhibitor cocktail (HALT inhibitors, Thermo Fisher Scientific, Cleveland, OH, USA) for biochemical analyses or perchloric acid 0.1 M for neurochemical analyses. Homogenates were centrifuged at 13,000× g at 4 °C for 20 min, and supernatants were used for further determinations.
# 5-HT, noradrenaline (NA), and KYN levels were measured in the PFC and HIPP of mice by HPLC coupled with an electrochemical detector (Ultimate ECD, Thermo Scientific Dionex, Milan, Italy) as already reported. Separation was performed by a LC18 reverse phase column (Kinetex, 150 mm × 3.0 mm, ODS 5 μm; Phenomenex, Castel Maggiore-Bologna, Italy). The detection was accomplished by a thin layer amperometric cell (Thermo Scientific Dionex, Milan, Italy) with a 5 mm diameter glassy carbon electrode at a working potential of 400 mV (5-HT and NA) or 0.750 mV (KYN) vs. Pd. The mobile phase consisted of an aqueous buffer containing 75 mM NaH2PO4, 1.7 mM octane sulfonic acid, 0.3 mM EDTA, and acetonitrile 10%, buffered at pH 3.0. […] GLU concentrations were determined by HPLC coupled with fluorescence detection (emission length 460 nm; excitation length 340 nm), as previously published. […] Results were analyzed by Borwin software (version 1.50; Jasco, Cremella, Italy) and the amino acid concentration was expressed as µM. All data were normalized for total area weight and were expressed as concentration/mg of tissue.
smiles,measurement,value
"CC(=O)O[C@@H]1CC[C@@]2(C)[C@@H](CC[C@]3(C)[C@@H]2C(=O)C=C2[C@@H]4[C@@H](C)[C@H](C)CC[C@]4(C)CC[C@]23C)[C@@]1(C)C(=O)O [AKBA, 3-O-acetyl-11-keto-β-boswellic acid]",GLU levels in the PFC,restored those levels to control
